Experimental data taken from ChEMBL document CHEMBL1201862, “PubChem BioAssay data set” (2004).
Active and inactive are the calls of the source.

Legend:
Cysteine protease ATG4B = biological target: T1, Cysteine protease ATG4B (Homo sapiens, UniProt Q9Y4P1); assay type: functional;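 also: Fluorescence-based dose-response confirmation assay measuring inhibition of ATG4B activity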
T1 sequence (Q9Y4P1 whole entry): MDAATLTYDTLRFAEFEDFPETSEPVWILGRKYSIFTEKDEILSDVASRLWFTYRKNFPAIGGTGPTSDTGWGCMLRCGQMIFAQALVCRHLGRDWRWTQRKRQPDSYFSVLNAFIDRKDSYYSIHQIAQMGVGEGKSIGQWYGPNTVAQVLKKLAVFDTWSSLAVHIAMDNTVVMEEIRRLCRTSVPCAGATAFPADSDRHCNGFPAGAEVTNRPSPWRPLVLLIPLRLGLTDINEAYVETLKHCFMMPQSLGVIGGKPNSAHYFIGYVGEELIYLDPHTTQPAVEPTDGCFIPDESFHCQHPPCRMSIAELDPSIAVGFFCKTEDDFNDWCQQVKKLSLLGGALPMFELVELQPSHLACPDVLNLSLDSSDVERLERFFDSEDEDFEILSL

INS1 = assay: beta cell apoptosis inhibitors, cytokine rescue, dose response, luminescence, retest (AID 449756); assay type: functional, cell-based; details: Rattus norvegicus;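 also: cell death triggered by IL-1 beta plus TNF-alpha plus IFN-gamma mixture; protective hits raise ATP signal compared with cytokine alone wells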
[1] = HEK293T cytotoxicity, dose response, cytotoxicity control for miR-122 modulator project, cell-based, activator set, cherry-pick (AID 720690); assay type: functional;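 also: HEK293T human cells scored for general mammalian cytotoxicity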
[2] = biological target: Heat shock protein HSP 90-alpha (Homo sapiens, UniProt P07900); assay type: functional, organism-based
[3] = biological target: T2, Zinc finger protein mex-5 (Caenorhabditis elegans, UniProt Q9XUB2); assay: MEX-5/TCR-2 RNA interaction inhibitors, dose response, biochemical, C. elegans, fluorescence polarization (AID 1960)
T2 sequence (Q9XUB2 whole entry): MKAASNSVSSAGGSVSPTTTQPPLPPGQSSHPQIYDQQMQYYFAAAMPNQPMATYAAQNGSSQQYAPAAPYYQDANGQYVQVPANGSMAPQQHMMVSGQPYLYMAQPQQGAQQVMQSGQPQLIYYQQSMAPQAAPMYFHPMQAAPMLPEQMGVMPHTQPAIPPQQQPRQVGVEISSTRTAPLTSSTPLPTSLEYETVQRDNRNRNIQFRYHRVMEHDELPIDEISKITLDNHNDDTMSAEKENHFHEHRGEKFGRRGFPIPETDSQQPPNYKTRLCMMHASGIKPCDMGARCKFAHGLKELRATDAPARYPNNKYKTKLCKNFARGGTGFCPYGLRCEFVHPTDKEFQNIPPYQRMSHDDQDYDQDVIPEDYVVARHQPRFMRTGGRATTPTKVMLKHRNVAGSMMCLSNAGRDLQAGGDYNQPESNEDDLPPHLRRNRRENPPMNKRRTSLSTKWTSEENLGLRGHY

[4] = NIH-3T3 fibroblast cytotoxicity, dose response, cytotoxicity control, cell-based, fluorescence, Alamar Blue, secondary assay (AID 2327); assay type: functional;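 also: NIH-3T3 mouse fibroblasts cultured with fluconazole at 8 µg/mL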
[5] = biological target: T3, RNA-binding protein pos-1 (Caenorhabditis elegans, UniProt G5EF15); assay: inhibitors of POS-1/mex-3 RNA binding, dose response, biochemical, fluorescence polarization (AID 1964);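 also: purified POS-1 fused to maltose binding protein made in E. coli; potency of compounds blocking POS-1 binding to fluorescent RNA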
T3 sequence (G5EF15 whole entry): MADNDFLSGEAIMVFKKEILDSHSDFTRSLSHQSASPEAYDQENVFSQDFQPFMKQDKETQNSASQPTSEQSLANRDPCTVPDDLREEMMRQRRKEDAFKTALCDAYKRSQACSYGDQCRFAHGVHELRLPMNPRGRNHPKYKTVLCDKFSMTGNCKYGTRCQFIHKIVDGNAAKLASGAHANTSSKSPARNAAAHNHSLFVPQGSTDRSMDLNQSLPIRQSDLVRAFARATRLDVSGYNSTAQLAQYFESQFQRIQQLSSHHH

[6] = HEK293T cytotoxicity, dose response, cytotoxicity control for miR-122 modulator project, cell-based, inhibitor set, cherry-pick, set 2 (AID 720697); assay type: functional
[7] = inhibitors of SNCA 5'UTR-driven reporter translation, confirmation, H4 neuroglioma cells, luminescence (AID 1988); assay type: functional, cell-based
[8] = biological target: Likely tRNA 2'-phosphotransferase (Candida albicans (strain SC5314 / ATCC MYA-2876) (Yeast), UniProt Q5A7N4); assay: TPT1 tRNA phosphotransferase inhibitors, dose response, biochemical, fluorescence polarization (AID 2160)
Chain of Likely tRNA 2'-phosphotransferase (Q5A7N4 whole entry): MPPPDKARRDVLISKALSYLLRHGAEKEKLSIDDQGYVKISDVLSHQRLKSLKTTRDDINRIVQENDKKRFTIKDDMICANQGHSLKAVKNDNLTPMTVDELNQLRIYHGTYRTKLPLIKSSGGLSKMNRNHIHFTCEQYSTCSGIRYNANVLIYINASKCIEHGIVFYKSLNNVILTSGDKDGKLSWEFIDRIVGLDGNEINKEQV

ORF 73 = biological target: T4, ORF 73 (Human herpesvirus 8, UniProt O40947); assay: inhibitors of C-LANA binding to LBS DNA, dose response, biochemical, fluorescence polarization, cherry-picked samples (AID 504725); set-up: species or system Human gammaherpesvirus 8;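 also: fluorescence polarization of a labeled DNA duplex reporting LANA DNA binding; potency is for inhibitors that block LANA binding to the DNA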
T4 sequence (O40947 whole entry): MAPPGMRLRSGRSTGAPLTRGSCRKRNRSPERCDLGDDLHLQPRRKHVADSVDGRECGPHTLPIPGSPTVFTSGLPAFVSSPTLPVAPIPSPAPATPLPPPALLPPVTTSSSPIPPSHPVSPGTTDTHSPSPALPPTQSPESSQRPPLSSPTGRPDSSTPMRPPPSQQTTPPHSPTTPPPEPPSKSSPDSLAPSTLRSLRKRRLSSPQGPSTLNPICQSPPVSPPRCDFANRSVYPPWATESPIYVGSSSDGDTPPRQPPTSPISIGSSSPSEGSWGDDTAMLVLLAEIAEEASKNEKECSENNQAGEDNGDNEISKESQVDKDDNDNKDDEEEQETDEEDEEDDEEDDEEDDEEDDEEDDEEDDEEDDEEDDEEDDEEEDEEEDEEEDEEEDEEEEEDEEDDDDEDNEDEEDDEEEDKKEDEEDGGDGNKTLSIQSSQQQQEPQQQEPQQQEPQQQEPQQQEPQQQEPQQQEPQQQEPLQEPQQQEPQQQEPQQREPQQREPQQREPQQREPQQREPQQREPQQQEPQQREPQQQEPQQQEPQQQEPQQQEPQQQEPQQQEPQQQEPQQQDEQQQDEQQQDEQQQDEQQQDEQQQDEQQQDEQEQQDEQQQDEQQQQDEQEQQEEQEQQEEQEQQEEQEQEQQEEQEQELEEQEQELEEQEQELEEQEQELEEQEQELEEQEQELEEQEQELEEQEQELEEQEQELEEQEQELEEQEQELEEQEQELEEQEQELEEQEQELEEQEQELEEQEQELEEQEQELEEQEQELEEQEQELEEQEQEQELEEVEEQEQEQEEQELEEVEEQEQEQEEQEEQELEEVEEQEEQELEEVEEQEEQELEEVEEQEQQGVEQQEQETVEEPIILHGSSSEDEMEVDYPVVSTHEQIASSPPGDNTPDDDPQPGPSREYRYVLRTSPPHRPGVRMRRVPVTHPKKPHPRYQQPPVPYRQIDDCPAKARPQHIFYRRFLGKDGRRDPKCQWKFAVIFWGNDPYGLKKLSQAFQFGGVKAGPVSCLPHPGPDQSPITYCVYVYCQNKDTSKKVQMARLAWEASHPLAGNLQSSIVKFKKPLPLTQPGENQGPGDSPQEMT

HeLa = assay: HeLa cell cytotoxicity, dose response, cytotoxicity control, 24 h, cherry-picked samples (AID 504726); assay type: functional, cell-based; details: Homo sapiens;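 also: potency for cytotoxicity as loss of luminescence signal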
Beta-lactamase = Beta-lactamase (Salmonella choleraesuis (strain SC-B67), UniProt Q5J463)
Chain of Beta-lactamase (Q5J463 whole entry): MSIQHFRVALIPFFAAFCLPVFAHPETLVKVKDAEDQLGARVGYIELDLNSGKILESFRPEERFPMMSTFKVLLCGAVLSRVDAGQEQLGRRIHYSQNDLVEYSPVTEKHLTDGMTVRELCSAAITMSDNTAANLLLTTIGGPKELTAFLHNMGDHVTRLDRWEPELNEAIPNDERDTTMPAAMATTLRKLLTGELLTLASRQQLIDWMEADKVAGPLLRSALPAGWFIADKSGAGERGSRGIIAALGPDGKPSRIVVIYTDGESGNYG

HEK293 = assay: optical interference in Abeta FP readout, dose response, artefact control for IDE activator project, biochemical, fluorescence polarization (AID 588442); assay type: functional, cell-based; details: Homo sapiens

| Compound | IC50 (Cysteine protease ATG4B) | AC50 (INS1) | AC50 [1] | AC50 [2] | EC50 [3] | EC50 [4] | EC50 [5] | AC50 [6] | EC50 [7] | IC50 [8] | AC50 (ORF 73) | AC50 (HeLa) | IC50 (Beta-lactamase) | EC50 (HEK293) |
| --- | --- | --- | --- | --- | --- | --- | --- | --- | --- | --- | --- | --- | --- | --- |
| Oc1ccc2ccccc2c1/C=N/Nc1nnc(-c2ncc[nH]2)c2ccccc12 | 2.53 µM (active) | 0.424 µM (active) | 3.09 µM (active) | 3.53 µM (active) | 2.45 µM (active) | 11.4 µM (active) | 48.7 µM (inconclusive) | 2.19 µM (active) | 0.224 µM (active) |  |  |  |  |  |
| CC(C)C(C(=O)O)N1C(=O)/C(=C/C=C/c2ccco2)SC1=S (configuration not stated) |  |  |  |  | 19.4 µM (inconclusive) |  | 11 µM (inconclusive) |  |  | 20.5 µM (not active) | 45.6 µM (active) |  |  |  |
| O=C1CCN2C=Nc3cccc4ccc1c2c34 |  |  |  |  |  |  |  |  |  |  | 1.42 µM (active) | 20.2 µM (active) | 7.55 µM (active) | 17 µM (inactive) |
